Source: US20220401385A1, “Combination Therapy Based on PD-1 Signaling Inhibitors” (Kyoto University, priority 2019, published 2022)
Entries after “also recorded” stand apart in the source; their conditions may differ.

Tested on: CD44 high CD8+ T cells
Experiment: PI and Annexin apoptosis assay, CD44 high cells
Format: cell-based, mice
Settings: in the presence of SPD 0.2 μM
Procedure: FIG. 4 CD8^+ T cells were isolated from the spleen of mice without tumor inoculation, and further isolated into CD44^+ (CD44 high) and CD44^− (CD44 low) cell populations. a) CD44 low cells were simulated with CD3/CD28 antibody beads and SPD (0.2 μM). After 30 minutes, 1 hour, 2 hours and 72 hours, OCR was measured with a Seahorse analyzer. b) At the same time, total ATP production and glycolytic pathway-derived or mitochondrial activity-derived ATP production were calculated at 30-minute, 1-hour and 2-hour. c) CD44 low cells (2×10^5 cells) were stimulated with CD3/CD28 antibody beads and SPD (0.2 μM). After 24 hours, cell proliferation was examined by means of 3H uptake. d) Spare respiratory capacity (SRC) was calculated from the OCR measurement after 72 hours in a), and results with and without SPD were compared. e) CD44 low cells were stimulated with CD3/CD28 antibody beads and SPD (0.2 μM). After 24 hours, frequencies between apoptotic and viable cells were calculated by PI and Annexin staining. f-j) CD44 high cells were analyzed under the same conditions and by the same methods as described in a-e) above. […] All flow cytometry experiments were performed on FACS Canto II (BD Biosciences) and analyzed using FlowJo software (FLOWJO, LLC). […]

Which apoptotic cells does the source give for NCCCCNCCCN [SPD, spermidine] here?
Its apoptotic cells is “decreased”.

And the viable cells?
Its viable cells is “increased; also recorded: significantly high”.
